The values that follow come from patent US20250092043A1, “Kinase Inhibitors and Degraders” (Incyte Corporation, priority 2023, published 2025).

T1 sequence (O60674 whole entry V617F): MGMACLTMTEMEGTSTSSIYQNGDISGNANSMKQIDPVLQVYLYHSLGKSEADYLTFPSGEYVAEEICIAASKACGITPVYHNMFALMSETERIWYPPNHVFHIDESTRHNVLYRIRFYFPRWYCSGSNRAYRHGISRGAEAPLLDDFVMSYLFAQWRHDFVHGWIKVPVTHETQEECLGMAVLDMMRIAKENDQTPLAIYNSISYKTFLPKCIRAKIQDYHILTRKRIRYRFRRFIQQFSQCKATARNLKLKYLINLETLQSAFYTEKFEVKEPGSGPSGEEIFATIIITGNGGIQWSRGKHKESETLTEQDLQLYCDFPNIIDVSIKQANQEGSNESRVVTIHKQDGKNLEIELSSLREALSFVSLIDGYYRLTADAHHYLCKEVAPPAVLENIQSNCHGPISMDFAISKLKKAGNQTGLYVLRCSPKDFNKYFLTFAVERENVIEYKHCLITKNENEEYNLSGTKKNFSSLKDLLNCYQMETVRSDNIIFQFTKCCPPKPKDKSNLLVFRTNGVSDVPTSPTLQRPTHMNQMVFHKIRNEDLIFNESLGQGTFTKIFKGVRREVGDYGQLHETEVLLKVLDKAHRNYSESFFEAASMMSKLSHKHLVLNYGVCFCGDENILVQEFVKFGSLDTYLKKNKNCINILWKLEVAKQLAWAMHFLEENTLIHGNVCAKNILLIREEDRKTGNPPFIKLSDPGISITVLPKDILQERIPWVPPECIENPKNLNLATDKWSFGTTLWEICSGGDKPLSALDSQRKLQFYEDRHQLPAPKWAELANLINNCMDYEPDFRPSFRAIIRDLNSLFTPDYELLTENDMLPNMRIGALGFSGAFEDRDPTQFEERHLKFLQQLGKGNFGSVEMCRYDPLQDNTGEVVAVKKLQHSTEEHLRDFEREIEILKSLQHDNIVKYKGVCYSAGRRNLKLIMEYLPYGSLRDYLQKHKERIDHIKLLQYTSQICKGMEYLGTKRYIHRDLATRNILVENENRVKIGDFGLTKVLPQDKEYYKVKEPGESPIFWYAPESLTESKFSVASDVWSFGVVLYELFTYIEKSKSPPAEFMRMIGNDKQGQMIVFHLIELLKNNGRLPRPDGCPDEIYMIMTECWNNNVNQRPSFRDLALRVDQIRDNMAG

One assay addresses T1, JAK2 (Homo sapiens, UniProt O60674, V617F).
T1 construct: their effect on JAK2 protein degradation in SET2 cells; host or cells: SET2 cells (human essential thrombocythemia)
Briefly: Western blot quantitation of JAK2 degradation in SET2 cells. In kind it is cell-based. The following applies: 5 μM compound, 8 hours treatment, western blot densitometry vs. DMSO vehicle. Here is the method:
Example E. Western Blot Analysis of JAK2 Dependent SET2 Cells Treated with Compounds of the Present Disclosure
SET2 cells (DSMZ, catalog number ACC 608) are isolated from a person with human essential thrombocythemia and carry the JAK2 V617F mutation.
SET2 cells were cultured in RPMI culture medium (Gibco, catalog number 11875085) supplemented with 1% penicillin-streptomycin-glutamine (Thermo Fisher Scientific, catalog number 10378016) and 20% fetal bovine serum (Gibco, catalog number 10438034). Cultured cells were maintained at 37° C., 5% CO2 in the incubator.
Approximately 1,000,000 cells/well were added in 6-well plate containing 1.5 ml culture media with specified concentrations of compounds of the present disclosure or DMSO control. Cells were treated with concentrations of 10 uM, 5 uM, 1 uM, and 0.5 uM. Proteasome inhibitor MG-132 (Cell signaling, catalog number 2194) was added at 20 uM to an additional 10 uM compound treatment. The treatment period was 8 hours. After 8 hours, cells were collected in 1.5 mL microcentrifuge tubes. Tubes were centrifuged at 1500 rpm for 5 min. Supernatant was aspirated and samples were washed with 1 mL of cold PBS. The samples were centrifuged again at 1500 rpm for 5 min, supernatant was aspirated. The sample pellets were lysed using 150 μL of 1× lysing buffer (Cell Signaling Technologies—catalog number 9803S) supplemented with 1× Halt™ Protease and Phosphatase Inhibitor Cocktail (Thermo Fisher Scientific—catalog number 78447). Using Pierce™ BCA Protein Assay Kit (Thermo Fisher Scientific—catalog number 23225), protein concentration of the samples were quantitated. After normalizing sample concentration to approximately 20 ug/well, samples were loaded onto 4-12% Tris-glycine gels. Gels were transferred to nitrocellulose membranes using iBlot 2 Dry Blotting System and iBlot™ 2 Transfer Stacks, nitrocellulose (Thermo Fisher Scientific—catalog number IB23001). Following transfer, membranes were blocked with StartingBlock (Thermo Fisher Scientific—catalog number 37543). After 1 hour of blocking membranes, they were probed for JAK2, pSTAT5, STAT5, CRBN, and GAPDH (Cell Signaling—catalog numbers 3230, 4322, 25656, 71810, and 5174 respectively).
Compounds of the present disclosure were screened at various concentrations to determine their effect on JAK2 protein degradation in SET2 cells, using methods as described above. DMSO was used as the vehicle control with no PROTAC® added. Co-administration of 20 μM of the proteasome inhibitor MG-132 with the PROTAC® compound at its highest concentration (i.e., 5 or 10 μM) tested was conducted to support the hypothesis that the degradation was driven by the ubiquitin-proteosome system (UPS). Degradation was evaluated by western blot densitometry quantitation using the FluorChem M instrument software to analyze the intensity of the JAK2 band signal at various concentrations of PROTAC® compound vs. the JAK2 band signal of the DMSO vehicle. It is noted that ˜82% of JAK2 exists as the V617F mutant, with the remaining 18% of JAK2 being WT. Therefore, if the V617F mutant JAK2 is selectively degraded over the WT, the maximum degradation is ˜80%. Degradation was graded as A: […]; B: ≥40% to <60% degradation; C: ≥20% to <40% degradation, D: <20% to ≥10%; E<10%. ** refers to degradation at 0.5 μM.
In general terms: Immunoblotting shows a protein as a band on a membrane.
Consider `COC(=O)N[C@@H]1CC[C@@H](n2c(=O)n(C)c3cnc4[nH]c(-c5ccc(C(=O)N6CCC(C(=O)N7CCN(c8cccc9c8C(=O)N(C8CCC(=O)NC8=O)C9=O)CC7)CC6)cc5)c(-c5ccc6c(cnn6C(C)C)c5)c4c32)C1` (stereo partly drawn) [Example 37, methyl ((1R,3R)-3-(7-(4-(4-(4-(2-(2,6-dioxopiperidin-3-yl)-1,3-dioxoisoindolin-4-yl)piperazine-1-carbonyl)piperidine-1-carbonyl)phenyl)-8-(1-isopropyl-1H-indazol-5-yl)-3-methyl-2-oxo-3,6-dihydroimidazo[4,5-d]pyrrolo[2,3-b]pyridin-1(2H)-yl)cyclopentyl) carbamate], for which the “JAK2 % Degradation in SET2” value is given as “C (C: ≥20% to <40% degradation)”.

Take `COC(=O)N[C@@H]1CC[C@@H](n2c(=O)n(C)c3cnc4[nH]c(-c5ccc(C(=O)N6CCN(CC7CCN(c8cccc9c8C(=O)N(C8CCC(=O)NC8=O)C9=O)CC7)CC6)cc5)c(-c5ccc6c(cnn6C(C)C)c5)c4c32)C1` (stereo partly drawn) [Example 38, methyl ((1R,3R)-3-(7-(4-(4-((1-(2-(2,6-dioxopiperidin-3-yl)-1,3-dioxoisoindolin-4-yl)piperidin-4-yl)methyl)piperazine-1-carbonyl)phenyl)-8-(1-isopropyl-1H-indazol-5-yl)-3-methyl-2-oxo-3,6-dihydroimidazo[4,5-d]pyrrolo[2,3-b]pyridin-1(2H)-yl)cyclopentyl) carbamate]: the “JAK2 % Degradation in SET2” value is recorded as “A (A: ≥600% degradation)”.

`COC(=O)N[C@@H]1CC[C@@H](n2c(=O)n(C)c3cnc4[nH]c(-c5cnn(CC(=O)N6CCC(CN7CCN(c8cccc9c8C(=O)N(C8CCC(=O)NC8=O)C9=O)CC7)CC6)c5)c(-c5ccc6c(cnn6C(C)C)c5)c4c32)C1` (stereo partly drawn) [Example 40, methyl ((1R,3R)-3-(7-(1-(2-(4-((4-(2-(2,6-dioxopiperidin-3-yl)-1,3-dioxoisoindolin-4-yl)piperazin-1-yl)methyl)piperidin-1-yl)-2-oxoethyl)-1H-pyrazol-4-yl)-8-(1-isopropyl-1H-indazol-5-yl)-3-methyl-2-oxo-3,6-dihydroimidazo[4,5-d]pyrrolo[2,3-b]pyridin-1(2H)-yl)cyclopentyl) carbamate]: the “JAK2 % Degradation in SET2” value is recorded as “C (C: ≥20% to <40% degradation)”.

In the case of `COC(=O)N[C@@H]1CC[C@@H](n2c(=O)n(C)c3cnc4[nH]c(-c5cnn(CC(=O)N6CCC(CN7CCN(c8ccc9c(c8)CN(C8CCC(=O)NC8=O)C9=O)CC7)CC6)c5)c(-c5ccc6c(cnn6C(C)C)c5)c4c32)C1` (stereo partly drawn) [Example 41, methyl ((1R,3R)-3-(7-(1-(2-(4-((4-(2-(2,6-dioxopiperidin-3-yl)-1-oxoisoindolin-5-yl)piperazin-1-yl)methyl)piperidin-1-yl)-2-oxoethyl)-1H-pyrazol-4-yl)-8-(1-isopropyl-1H-indazol-5-yl)-3-methyl-2-oxo-3,6-dihydroimidazo[4,5-d]pyrrolo[2,3-b]pyridin-1(2H)-yl)cyclopentyl) carbamate], the “JAK2 % Degradation in SET2” value is recorded as “C (C: ≥20% to <40% degradation)”.

As to `COC(=O)N[C@@H]1CC[C@@H](n2c(=O)n(C)c3cnc4[nH]c(-c5ccc(CN6CCN(CC7CCN(c8cccc9c8C(=O)N(C8CCC(=O)NC8=O)C9=O)CC7)CC6)cc5)c(-c5ccc6c(cnn6C(C)C)c5)c4c32)C1` (stereo partly drawn) [Example 42, Methyl((1R,3R)-3-(7-(4-((4-((1-(2-(2,6-dioxopiperidin-3-yl)-1,3-dioxoisoindolin-4-yl)piperidin-4-yl)methyl)piperazin-1-yl)methyl)phenyl)-8-(1-isopropyl-1H-indazol-5-yl)-3-methyl-2-oxo-3,6-dihydroimidazo[4,5-d]pyrrolo[2,3-b]pyridin-1(2H)-yl)cyclopentyl)carbamate], the “JAK2 % Degradation in SET2” value is given as “A (A: ≥600% degradation)”.

Take `COC(=O)N[C@@H]1CC[C@@H](n2c(=O)n(C)c3cnc4[nH]c(-c5ccc(CN6CCC(CN7CCN(c8ccc9c(c8)CN(C8CCC(=O)NC8=O)C9=O)CC7)CC6)cc5)c(-c5ccc6c(cnn6C(C)C)c5)c4c32)C1` (stereo partly drawn) [Example 43, Methyl((1R,3R)-3-(7-(4-((4-((4-(2-(2,6-dioxopiperidin-3-yl)-1-oxoisoindolin-5-yl)piperazin-1-yl)methyl)piperidin-1-yl)methyl)phenyl)-8-(1-isopropyl-1H-indazol-5-yl)-3-methyl-2-oxo-3,6-dihydroimidazo[4,5-d]pyrrolo[2,3-b]pyridin-1(2H)-yl)cyclopentyl)carbamate]: the “JAK2 % Degradation in SET2” value is “A (A: ≥600% degradation)”.

On to `COC(=O)N[C@@H]1CC[C@@H](n2c(=O)n(C)c3cnc4[nH]c(-c5ccc(CN6CCC(CN7CCN(c8cccc9c8C(=O)N(C8CCC(=O)NC8=O)C9=O)CC7)CC6)cc5)c(-c5ccc6c(cnn6C(C)C)c5)c4c32)C1` (stereo partly drawn) [Example 44, Methyl((1R,3R)-3-(7-(4-((4-((4-(2-(2,6-dioxopiperidin-3-yl)-1,3-dioxoisoindolin-4-yl)piperazin-1-yl)methyl)piperidin-1-yl)methyl)phenyl)-8-(1-isopropyl-1H-indazol-5-yl)-3-methyl-2-oxo-3,6-dihydroimidazo[4,5-d]pyrrolo[2,3-b]pyridin-1(2H)-yl)cyclopentyl)carbamate], for which the “JAK2 % Degradation in SET2” value is “C (C: ≥20% to <40% degradation)”.

Still in this assay, the particulars now being: 10 μM compound, 8 hours treatment, western blot densitometry vs. DMSO vehicle.
As for `COC(=O)N[C@@H]1CC[C@@H](n2c(=O)n(C)c3cnc4[nH]c(-c5ccc(C(=O)N6CCC(CN7CCN(c8ccc9c(c8)CN(C8CCC(=O)NC8=O)C9=O)CC7)CC6)cc5)c(-c5ccc6c(cnn6C(C)C)c5)c4c32)C1` (stereo partly drawn) [Example 35, methyl ((1R,3R)-3-(7-(4-(4-((4-(2-(2,6-dioxopiperidin-3-yl)-1-oxoisoindolin-5-yl)piperazin-1-yl)methyl)piperidine-1-carbonyl)phenyl)-8-(1-isopropyl-1H-indazol-5-yl)-3-methyl-2-oxo-3,6-dihydroimidazo[4,5-d]pyrrolo[2,3-b]pyridin-1(2H)-yl)cyclopentyl) carbamate], the “JAK2 % Degradation in SET2” value is given as “A (A: ≥600% degradation)”.

As to `COC(=O)N[C@@H]1CC[C@@H](n2c(=O)n(C)c3cnc4[nH]c(-c5ccc(C(=O)N6CCC(CN7CCN(c8ccc9c(c8)CN(C8CCC(=O)NC8=O)C9=O)CC7)CC6)c(F)c5)c(-c5ccc6c(cnn6C(C)C)c5)c4c32)C1` (stereo partly drawn) [Example 36, methyl ((1R,3R)-3-(7-(4-(4-((4-(2-(2,6-dioxopiperidin-3-yl)-1-oxoisoindolin-5-yl)piperazin-1-yl)methyl)piperidine-1-carbonyl)-3-fluorophenyl)-8-(1-isopropyl-1H-indazol-5-yl)-3-methyl-2-oxo-3,6-dihydroimidazo[4,5-d]pyrrolo[2,3-b]pyridin-1(2H)-yl)cyclopentyl) carbamate], the “JAK2 % Degradation in SET2” value was “A (A: ≥600% degradation)”.

In the case of `CN[C@@H](C)C(=O)N[C@H](C(=O)N1C[C@@H](NC(=O)CC2CCN(C(=O)c3ccc(-c4[nH]c5ncc6c(c5c4-c4ccc5c(cnn5C(C)C)c4)n([C@@H]4CC[C@@H](NC(=O)OC)C4)c(=O)n6C)cc3F)CC2)C[C@H]1C(=O)N[C@@H]1CCCc2ccccc21)C1CCCCC1` [Example 46, Methyl((1R,3R)-3-(7-(4-(4-(2-(((3S,5S)-1-((S)-2-cyclohexyl-2-((S)-2-(methylamino)propanamido)acetyl)-5-(((R)-1,2,3,4-tetrahydronaphthalen-1-yl)carbamoyl)pyrrolidin-3-yl)amino)-2-oxoethyl)piperidine-1-carbonyl)-3-fluorophenyl)-8-(1-isopropyl-1H-indazol-5-yl)-3-methyl-2-oxo-3,6-dihydroimidazo[4,5-d]pyrrolo[2,3-b]pyridin-1(2H)-yl)cyclopentyl)carbamate], the “JAK2 % Degradation in SET2” value is “D (D: <20% to ≥10%)”.
